Consider 15 compounds from PubChem BioAssay (NCI).

Test systems include DU-145 prostate; K-562 leukemia; M14 melanoma; MCF7 breast; MOLT-4 leukemia; OVCAR-4 ovarian; PC-3 prostate; U251 CNS; IGROV1 ovarian; SK-MEL-2 melanoma.
What all share (assay): NCI anticancer screen, dose series, 48 h

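Cultured in 96-well plates, cells were exposed to test compound for 48 hours across five concentrations. GI50 = concentration required for 50% inhibition of growth. Definition used: TGI = concentration required for complete inhibition of growth.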

For the compound `O=Cc1cc(O)c(O)c(/C=N/n2c3ccccc3c3ccccc32)c1`, the TGI with DU-145 prostate was 49 µM; with K-562 leukemia, 26.7 µM; in the test on M14 melanoma, 23.6 µM; with MCF7 breast, 4.62 µM; in the test with MOLT-4 leukemia, 12.5 µM; with OVCAR-4 ovarian it was 13.5 µM. The TGI was found to be 28.7 µM in the test with PC-3 prostate and 45.5 µM with U251 CNS.
On to `N#CI1OC(C(F)(F)F)(C(F)(F)F)c2ccccc21`, for which the TGI was 38.4 µM with DU-145 prostate; 31.8 µM in the test with IGROV1 ovarian; > 100 µM in the test on K-562 leukemia; 36.2 µM with M14 melanoma; 42.3 µM with MCF7 breast; 30.6 µM with OVCAR-4 ovarian. Besides, the TGI in the test on PC-3 prostate was determined as 30.1 µM; in the test on SK-MEL-2 melanoma, 30.5 µM; in the test on U251 CNS, 52.5 µM.
Turning to `CCOC(=O)O/N=C1/C(c2c(O)[nH]c3ccccc23)=Nc2ccccc21`, the TGI in the test on DU-145 prostate is 13.3 µM; in the test on IGROV1 ovarian, 30.9 µM; with K-562 leukemia, > 100 µM; with M14 melanoma, 24.2 µM; with MCF7 breast, 18.4 µM; in the test on MOLT-4 leukemia it was > 100 µM. Further, the results for the TGI with OVCAR-4 ovarian, in the test with SK-MEL-2 melanoma and with U251 CNS were 45.2 µM, 8.18 µM and > 100 µM, respectively.
For `O=[N+]([O-])c1ccc(Cl)cc1N/N=C/c1cccs1`, the TGI in the test on DU-145 prostate, in the test on IGROV1 ovarian, in the test with K-562 leukemia, with M14 melanoma, in the test on MCF7 breast and in the test on MOLT-4 leukemia was > 100 µM throughout. In addition, the TGI with OVCAR-4 ovarian, in the test with PC-3 prostate and in the test on U251 CNS was > 100 µM in each case.
Consider `CC(C)(CN1CCCCC1)C(=O)/C=C/c1c(Cl)cccc1Cl`, for which the TGI in the test on DU-145 prostate was 2.44 µM; with IGROV1 ovarian, 1.13 µM; in the test on M14 melanoma it was 2.32 µM; in the test with MCF7 breast, 5.31 µM; in the test on OVCAR-4 ovarian, 4.98 µM; in the test on PC-3 prostate, 3.46 µM. The TGI came out at 3.73 µM in the test with SK-MEL-2 melanoma and 2.8 µM in the test with U251 CNS.
As for `C=CCc1cccc2cc(C(=O)Nc3nc(C45CC6CC(CC(C6)C4)C5)cs3)c(=O)oc12`, the TGI in the test on DU-145 prostate was > 100 µM; with IGROV1 ovarian, 94.5 µM; in the test on K-562 leukemia, > 100 µM; with MCF7 breast, > 100 µM; in the test with MOLT-4 leukemia, > 100 µM; in the test on OVCAR-4 ovarian it was 51.5 µM. Moreover, the TGI was > 100 µM in the test on PC-3 prostate and 41.9 µM with U251 CNS.
Regarding `COc1cc(C)cc(OC)c1/C=C/C(=O)O`, the TGI in the test on IGROV1 ovarian, with K-562 leukemia, in the test on M14 melanoma, in the test on MOLT-4 leukemia, in the test on OVCAR-4 ovarian and in the test with PC-3 prostate was > 100 µM throughout. The TGI in the test with SK-MEL-2 melanoma and in the test on U251 CNS was > 100 µM throughout.
For `Cc1ccc(Nc2ccc(Nc3ccc(C)cc3S(=O)(=O)O)c3c2C(=O)c2ccccc2C3=O)c(S(=O)(=O)O)c1`, the TGI in the test on IGROV1 ovarian, with K-562 leukemia, in the test on M14 melanoma, with MOLT-4 leukemia, in the test on OVCAR-4 ovarian and in the test with SK-MEL-2 melanoma was > 100 µM throughout. The TGI in the test on U251 CNS is > 100 µM.
`Cc1oc2c(C)c3oc(=O)cc(C)c3cc2c1CN`: the TGI with K-562 leukemia is > 100 µM; in the test on M14 melanoma, > 100 µM; in the test on MOLT-4 leukemia, > 100 µM; with OVCAR-4 ovarian it was > 100 µM; with SK-MEL-2 melanoma it was > 100 µM; in the test on U251 CNS, 74.8 µM.
On to `COc1ccc(/C=C/C(c2cc(OC)c(OC)c(OC)c2)n2cncn2)cc1O` (configuration not stated), for which the GI50 with IGROV1 ovarian is 5.83 µM; with K-562 leukemia it was 0.032 µM; in the test on M14 melanoma, 0.0287 µM; in the test on MCF7 breast, 0.033 µM; in the test on OVCAR-4 ovarian, 7.05 µM; in the test with PC-3 prostate it was 0.036 µM. Moreover, the figures for the GI50 in the test on SK-MEL-2 melanoma and with U251 CNS were 0.0438 µM and 0.0506 µM, respectively. Moreover, the TGI was > 100 µM with IGROV1 ovarian; > 100 µM with K-562 leukemia; 5.12 µM in the test with M14 melanoma; > 100 µM in the test on MCF7 breast; > 100 µM in the test on OVCAR-4 ovarian; > 100 µM with PC-3 prostate. The TGI in the test with SK-MEL-2 melanoma is > 100 µM; in the test on U251 CNS it was 56.4 µM.
For `COc1cc([C@@H]2c3cc4c(cc3[C@@H](Nc3ccc(NC(=O)c5cc(NC(=O)c6cc([N+](=O)[O-])cn6C)cn5C)cc3)[C@H]3COC(=O)[C@H]23)OCO4)cc(OC)c1O`, the TGI with DU-145 prostate is 5.22 µM; with IGROV1 ovarian it was > 39 µM; in the test on K-562 leukemia, 14.4 µM; with M14 melanoma it was 47.7 µM; in the test on MCF7 breast it was > 39.1 µM; in the test on OVCAR-4 ovarian it was > 100 µM. In addition, the TGI in the test on SK-MEL-2 melanoma was > 100 µM; with U251 CNS it was 26.2 µM.
For the compound `O=C1C(CN2CCCC2)CCCC1CN1CCCC1` (configuration not stated), the TGI in the test on DU-145 prostate came to 34.2 µM; in the test with IGROV1 ovarian it was 32.4 µM; in the test on K-562 leukemia, 2.27 µM; with M14 melanoma, 3.3 µM; with MCF7 breast it was 2.8 µM; in the test with OVCAR-4 ovarian, 20.3 µM. Besides, the TGI worked out at 32.3 µM in the test on PC-3 prostate, 37.4 µM with SK-MEL-2 melanoma and 41.3 µM with U251 CNS.
Turning to `NC(CNc1ccc(O)cc1)C(=O)O` (configuration not stated), the TGI is > 100 µM in the test with K-562 leukemia; > 100 µM in the test with M14 melanoma; > 100 µM with MOLT-4 leukemia; 31.7 µM in the test on OVCAR-4 ovarian; > 100 µM in the test on SK-MEL-2 melanoma; > 100 µM in the test on U251 CNS.
With `Cc1nn(-c2ccccc2)c2c1N=C(C(=O)O)CC(c1ccccc1)=N2`, the TGI in the test with DU-145 prostate, with IGROV1 ovarian, in the test with K-562 leukemia, in the test with M14 melanoma, in the test on MCF7 breast and with MOLT-4 leukemia was > 10 µM each time. The TGI in the test on OVCAR-4 ovarian, in the test with PC-3 prostate and in the test with U251 CNS was > 10 µM each time.
As to `CCCN1C(=O)/C(=C(/O)C(=O)OCC)C(c2ccc(OC)c(OC)c2)C1=O` (configuration not stated), the TGI in the test on IGROV1 ovarian, with K-562 leukemia, with MCF7 breast, with MOLT-4 leukemia, in the test with OVCAR-4 ovarian and in the test with SK-MEL-2 melanoma was > 100 µM each time. Also, the TGI in the test with U251 CNS is > 100 µM.
